In patent publication US6440946B1, “Multiple-agents-binding compound, production and use thereof” (Takeda Chemical Industries, Ltd., priority 1999, dated 2002):

Tests used:
[1] = test system: HIV-1 IIIB (HTLV-IIIB) virus in CEMM-SS cells; experiment: Anti-HIV activity: prevention of death of HIV-infected T cell lymphocytes (MTT method); assay type: cell-based, HIV type 1 virus; conditions: 6 days
Method: Anti-HIV activity of the compounds of the present invention was evaluated according to the method described below.
The inhibitory effect on virus particle formation of HIV virus with which T cell lymphocytes were infected was evaluated according to ability to prevent T cell lymphocytes infected with said HIV virus from dying.
According to the test method described in the literature (O. S. Weislow et al., J. Natl. Cancer Inst., 81, 577 (1989), etc.), anti-HIV activity of the compounds of the present invention was evaluated. As the T cell lymphocytes, CEMM-SS cells were used. As the HIV virus, HIV-1 IIIB (HTLV-IIIB) virus which is HIV type 1 virus was used. On 96 well microtiter plate containing 200 μl of culture medium (RPMI-1640 medium containing 50 μg/ml of gentamicin and 10% fetal calf serum), determined concentration of Test Compound and HIV-1 IIIB virus (the mount of virus per well is that necessary for completely killing infected cells 6 days after infection), CEMM-SS cell (2.5×10^4 cells/ml) were inoculated and cultivated at 37° C. for 6 days in the incubator containing 5% CO2. Thereafter, the number of living cells was determined by the MTT method (R. Pauwels et al., J. Virol. Methods, 20, 309 (1988), etc.), and the determined value was defined as (ODT)HIV. HIV-non-infected CEMM-SS cells and HIV-infected CEMM-SS cells were respectively cultivated under the same conditions provided that the concentration of Test Compound was zero. Thereafter, the number of living cells was determined, and the respectively determined value was defined as (ODC)MOCK and (ODC)HIV. Using these values, (ODT)HIV, (ODC)MOCK and (ODC)HIV, inhibitory rate, ratio preventing T cell lymphocytes infected with said HIV virus from dying, was calculated according to the following formula:
[(ODT)HIV−(ODC)HIV][/(ODC)MOCK−(ODC)HIV]
Based on EC50 which is the concentration of Test Compound making the calculated inhibitory rate 50%, anti-HIV activity was evaluated.
(§1) The results of HIV protease inhibitory activity and anti-HIV activity of the compound of the present invention evaluated by the above-mentioned methods were shown in Table 1, together with the results of Compound of Reference Example. In Table 1, HIV protease inhibitory activity is shown as the inhibitory rate when the final concentration of Test Compound in the reaction solution was 5 μM, and the values in parentheses correspond to the inhibitory rate when the final concentration of Test Compound in the reaction solution was 50 nM.

[2] = molecular target: T1, recombinant HIV protease (Human immunodeficiency virus type 1 group M subtype B, UniProt P12497); experiment: HIV protease inhibitory activity (cleavage of synthetic nonapeptide substrate, reverse phase HPLC); assay type: biochemical; conditions: pH5.5, 37° C., 60 minutes; for Inhibition of HIV protease (inhibitory rate) / inhibition at 5 µM: final concentration of Test Compound 5 μM; for inhibition at 5 µM: read-out: Inhibition of HIV protease (inhibitory rate)
T1 construct: Instead of natural HIV protease, recombinant HIV protease already reported in the literature
Method: HIV protease inhibitory activity of the compounds of the present invention [Compounds of Working Examples 1-7] was evaluated according to the test method already reported in the literature (Journal of Synthetic Organic Chemistry, Japan, 52,403-412 (1994), Japanese Patent Unexamined Publication No. 1993-170722, etc.). In addition, using Compounds of Reference Examples 1-4, similar test was carried out.
Instead of natural HIV protease, recombinant HIV protease already reported in the literature (cf. Science, 230, 949 (1985)) was used for the evaluation of HIV protease inhibitory activity (cf. Japanese Patent Unexamined Publication No. 1993-170722, etc.). As the substrate of said recombinant HIV protease, synthetic nonapeptide substrate (Ac-Arg-Ala-Ser-Gln-Asn-Tyr-Pro-Val-Val-NH2 trifluoroacetate) was used, and protease activity was determined.
Fifteen μl of the reaction solution containing 100 mM (final concentration) of MES buffer solution (pH5.5), 40 mM of said substrate, 9.2 μg of said recombinant HIV protease, and various concentration of Test Compound (for example, Test Compound was previously dissolved in DMSO, etc.) was used, and the reaction was started after said recombinant HIV protease had been added to the reaction solution. The reaction was carried out at 37° C. for 60 minutes, and then, the reaction was stopped by addition of 15 μl of acetonitrile. The amount of the peptide fragment produced by cleaving the substrate between -Tyr . . . Pro- of said substrate was determined according to the internal standard method of reverse phase HPLC. When the concentration of test compound was zero, protease activity was defined as 100%; when the peptide fragment was not detected, remaining protease activity was defined as 0%; and remaining protease activity was calculated based on the determined concentration of the peptide fragment. When the remaining protease activity was 0%, inhibition rate which indicates activity inhibiting HIV protease was defined as 100%, and the inhibition rate was defined according to the value taken the remaining protease activity indicated by said percentage from 100%.
as §1

[3] = Human immunodeficiency virus 1, 144 h
[4] = final concentration of Test Compound 50 nM

SMILES	EC50 [1, 3] [nM]	Inhibition of HIV protease (inhibitory rate, values in parentheses) [2, 4]	Inhibition of HIV protease (inhibitory rate) [2] [%]	other results
Cc1cn([C@H]2C[C@H](N=[N+]=[N-])[C@@H](CO)O2)c(=O)[nH]c1=O [AZT, 3′-azido-3′-deoxythymidine, reference compound]	11	–	–	–
Cc1ccccc1CNC(=O)[C@H]1N(C(=O)[C@@H](O)[C@H](Cc2ccccc2)NC(=O)CC(C)(C)C(=O)O)CSC1(C)C [Ref. Ex. 4, (R)-N-(2-methylbenzyl)-3-[(2S,3S)-3-(3,3-dimethylsuccinyl)amino-2-hydroxy-4-phenylbutyryl]-5,5-dimethyl-1,3-thiazolidine-4-carboxamide]	–	(78%)	100	–
Cc1ccccc1CNC(=O)[C@@H]1CSCN1C(=O)[C@@H](O)[C@H](Cc1ccccc1)NC(=O)CC(C)(C)C(=O)O [Ref. Ex. 3, (R)-N-(2-methylbenzyl)-3-[(2S,3S)-3-(3,3-dimethylsuccinyl)amino-2-hydroxy-4-phenylbutyryl]-1,3-thiazolidine-4-carboxamide]	–	–	87	–
Cc1ccccc1CNC(=O)[C@H]1N(C(=O)[C@@H](O)[C@H](Cc2ccccc2)NC(=O)CC(C)(C)C(=O)OC[C@H]2O[C@@H](n3cc(C)c(=O)[nH]c3=O)CC2N=[N+]=[N-])CSC1(C)C (some centres unmarked) [Working Ex. 6]	–	–	83	EC50 [1]: 0.24 nM
Cc1ccccc1CNC(=O)[C@H]1N(C(=O)[C@@H](O)[C@H](Cc2ccccc2)NC(=O)C(C)C(C)C(=O)OC[C@H]2O[C@@H](n3cc(C)c(=O)[nH]c3=O)CC2N=[N+]=[N-])CSC1(C)C (stereo partly drawn) [Working Ex. 7, {(2S,5R)-3-azido-5-[5-methyl-2,4-dioxo-3,4-dihydro-1(2H)-pyrimidinyl]tetrahydro-2-furanyl}methyl 4-([(1S,2S)-1-benzyl-3-((4R)-5,5-dimethyl-4-{[(2-methylbenzyl)amino]carbonyl}-1,3-thiazolidin-3-yl)-2-hydroxy-3-oxopropyl]amino}-2,3-dimethyl-4-oxobutanoate]	7.3	–	–	inhibition at 0.05 µM ([2]; pH 5.5, final concentration of Test Compound 50 nM, read-out: Inhibition of HIV protease (inhibitory rate, values in parentheses)): 39%; inhibition at 5 µM ([2]; pH 5.5): 96%
CC(C)(C)NC(=O)[C@H]1N(C(=O)[C@@H](O)[C@H](Cc2ccccc2)NC(=O)CC(C)(C)C(=O)O)CSC1(C)C [Ref. Ex. 2, (R)-N-t-butyl-3-[(2S,3S)-3-(3,3-dimethylsuccinyl)amino-2-hydroxy-4-phenylbutyryl]-5,5-dimethyl-1,3-thiazolidine-4-carboxamide]	–	(76%)	99	–
CC(C)(C)NC(=O)[C@@H]1CSCN1C(=O)[C@@H](O)[C@H](Cc1ccccc1)NC(=O)CC(C)(C)C(=O)O [Ref. Ex. 1, (R)-N-t-butyl-3-[(2S,3S)-3-(3,3-dimethylsuccinyl)amino-2-hydroxy-4-phenylbutyryl]-1,3-thiazolidine-4-carboxamide]	–	(20%)	93	–
Cc1ccccc1CNC(=O)[C@@H]1CSCN1C(=O)[C@@H](O)[C@H](Cc1ccccc1)NC(=O)CC(C)(C)C(=O)OC[C@H]1O[C@@H](n2cc(C)c(=O)[nH]c2=O)CC1N=[N+]=[N-] (some centres unmarked) [Working Ex. 4]	–	–	11	EC50 [1]: 3.8 nM
Cc1ccccc1CNC(=O)[C@@H]1CSCN1C(=O)[C@@H](O)[C@H](Cc1ccccc1)NC(=O)C(C)C(C)C(=O)OC[C@H]1O[C@@H](n2cc(C)c(=O)[nH]c2=O)CC1N=[N+]=[N-] (stereo partly drawn) [Working Ex. 5, {(2S,5R)-3-azido-5-[5-methyl-2,4-dioxo-3,4-dihydro-1(2H)-pyrimidinyl]tetrahydro-2-furanyl}methyl 4-([(1S,2S)-1-benzyl-2-hydroxy-3-((4R)-4-([(2-methylbenzyl)amino]carbonyl}-1,3-thiazolidin-3-yl)-3-oxopropyl]amino)-2,3-dimethyl-4-oxobutanoate]	8.9	–	–	inhibition at 5 µM ([2]; pH 5.5): 57%
